In patent US4463004A, “Dioxazabicyclic derivatives” (Delalande S.A., priority 1981, dated 1984):

Tests used:
mice = test: analgesia test using phenylbenzoquinone; format: in vivo; conditions: Mus musculus, ip, read-out: Analgesia test ED 50
Experimental: Exp. Biol. Med. 95, 729(1957).
The compounds of the invention were administered intraperitoneally.

[1] = Acute toxicity, intraperitoneal (Miller and Tainter); conditions: mouse, in vivo, ip; mice, i.p.; read-out: Acute toxicity LD 50
Experimental: Acute toxicity was evaluated intraperitoneally in mice according to the method described by MILLER and TAINTER in Proc. Soc. Exp. Biol. Med. 57, 261 (1944).

With `Fc1ccc(C23CNCC(CO2)O3)cc1` (stereo not drawn) [Code number 7, 5-parafluorophenyl-6,8-dioxa-3-azabicyclo [3.2.1] octane meleate] the ED50 (mice) was 10 mg/kg and the LD50 [1] was 300 mg/kg.

Molecule `Clc1cccc(C23CNCC(CO2)O3)c1` (stereo not drawn) [Code number 9] has an ED50 (mice) of 10 mg/kg and an LD50 [1] of 240 mg/kg.

Molecule `O=C(c1ccccc1)c1cccc(C23CNCC(CO2)O3)c1` (stereo not drawn) [compound 59] has an ED50 (mice) of 13.5 mg/kg and an LD50 [1] of 155 mg/kg.

In the case of `CCN1CC2COC(c3ccc(F)cc3)(C1)O2` (stereo not drawn) [compound 25], the ED50 (mice) is reported as 14 mg/kg and the LD50 [1] is reported as 280 mg/kg.

`c1csc(C23CNCC(CO2)O3)c1` (stereo not drawn) [Code number 4] showed an ED50 (mice) of 24 mg/kg and an LD50 [1] greater than 400 mg/kg.

`O=[N+]([O-])c1ccc(C23CNCC(CO2)O3)cc1` (stereo not drawn) [compound 21] showed an ED50 (mice) of 10 mg/kg and an LD50 [1] of 290 mg/kg.

With `CC(=O)Nc1ccc(C23CNCC(CO2)O3)cc1` (stereo not drawn) [compound 44] the ED50 (mice) was 7 mg/kg and the LD50 [1] was 380 mg/kg.

`Clc1ccc(C23CNCC(CO2)O3)cc1Cl` (stereo not drawn) [compound 23] gave an ED50 (mice) of 10 mg/kg and an LD50 [1] of 300 mg/kg.

`C1C2CC3CC1CC(C14CNCC(CO1)O4)(C2)C3` (stereo not drawn) [compound 36] showed an ED50 (mice) of 30 mg/kg and an LD50 [1] of 185 mg/kg.

`c1ccc(CN2CC3COC(C4CCCCC4)(C2)O3)cc1` (stereo not drawn) [compound 30] gave an ED50 (mice) of 26 mg/kg and an LD50 [1] greater than 400 mg/kg.

In the case of `Fc1ccc(C23CCCNCC(CO2)O3)cc1` (stereo not drawn) [compound 32], the ED50 (mice) is reported as 9 mg/kg and the LD50 [1] is reported as 140 mg/kg.

`COc1ccccc1C12CNCC(CO1)O2` (stereo not drawn) [compound 14] showed an ED50 (mice) of 8 mg/kg and an LD50 [1] of 300 mg/kg.

For `O=C(O)c1ccc(C23CNCC(CO2)O3)cc1` (stereo not drawn) [compound 54], the ED50 (mice) was 38 mg/kg and the LD50 [1] was greater than 400 mg/kg.

In the case of `c1ccc2cc(C34CNCC(CO3)O4)ccc2c1` (stereo not drawn) [compound 39], the ED50 (mice) is reported as 8 mg/kg and the LD50 [1] is reported as 310 mg/kg.

Work on `c1ccc2c(C34CNCC(CO3)O4)cccc2c1` (stereo not drawn) [compound 58] yielded an ED50 (mice) of 28 mg/kg and an LD50 [1] of 160 mg/kg.

`N#Cc1ccc(C23CNCC(CO2)O3)cc1` (stereo not drawn) [compound 19] gave an ED50 (mice) of 19 mg/kg and an LD50 [1] of 280 mg/kg.

Molecule `c1cc(C23CNCC(CO2)O3)ccc1C1CCCCC1` (stereo not drawn) [compound 42] has an ED50 (mice) of 15 mg/kg and an LD50 [1] greater than 400 mg/kg.

In the case of `COc1ccc2cc(C34CNCC(CO3)O4)ccc2c1` (stereo not drawn) [compound 56], the ED50 (mice) is reported as 21 mg/kg and the LD50 [1] is reported as 240 mg/kg.

Work on `CC(C)(C)C12CNCC(CO1)O2` (stereo not drawn) [Code number 1] yielded an ED50 (mice) of 18 mg/kg and an LD50 [1] of 400 mg/kg.

In the case of `c1cncc(C23CNCC(CO2)O3)c1` (stereo not drawn) [compound 48], the ED50 (mice) is reported as 58 mg/kg and the LD50 [1] is reported as greater than 400 mg/kg.

`c1ccc(-c2ccc(C34CNCC(CO3)O4)cc2)cc1` (stereo not drawn) [compound 40] gave an ED50 (mice) of 24 mg/kg and an LD50 [1] of 310 mg/kg.
